Like-named read-outs stand apart in the source and are kept apart here.
Columns and labels:
Assay type in all cases: in vivo
[1] = tested on: bermudagrass (Cynodon dactylon); assay: Test B pre-/postemergence plant response
Summary of the method: (§1)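 Compound in solvent + surfactant applied pre-em (loam/sand) or post-em (plants 2–18 cm, peat medium); greenhouse hold 13–15 days; visual 0–100 control score.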

[2] = tested on: wheat (Triticum aestivum); assay: Test B pre-/postemergence plant response
Summary of the method: as §1

[3] = tested on: cocklebur (Xanthium strumarium); assay: Test B pre-/postemergence plant response
Summary of the method: as §1

[4] = tested on: morningglory (Ipomoea spp.); assay: Test A pre-/postemergence plant response; details: Ipomoea, 240 h, read-out: Plant response rating, Morningglory; for pest or weed control at 125 g/ha: 125 g ai/ha; for pest or weed control at 500 g/ha: 500 g ai/ha, approx. ten days
Summary of the method: (§2)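 Greenhouse pots of loam/sand received directed preemergence soil sprays or postemergence sprays (plants 2–10 cm, 1–2 leaf stage), compounds formulated in non-phytotoxic solvent with surfactant. Injury was rated visually versus untreated controls after about ten days on a 0 (no effect) to 100 (complete control) scale.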

[5] = tested on: wheat (Triticum aestivum); assay: Test A pre-/postemergence plant response; details: Triticum aestivum, 240 h, read-out: Plant response rating, Wheat; for plant injury at 125 g/ha: 125 g ai/ha; for plant injury at 500 g/ha: 500 g ai/ha, approx. ten days
Summary of the method: as §2

corn (Zea mays) = assay: Test A pre-/postemergence plant response; details: Zea mays, 240 h; for Corn plant response rating (crop injury, 0 = no effect, 100 = complete kill) at 125 g/ha: 125 g ai/ha; for Corn plant response rating (crop injury, 0 = no effect, 100 = complete kill) at 500 g/ha: 500 g ai/ha, approx. ten days
Summary of the method: as §2

[6] = tested on: pigweed (Amaranthus retroflexus); assay: Test A pre-/postemergence plant response; details: Amaranthus retroflexus, 240 h, read-out: Plant response rating, Pigweed; for pest or weed control at 125 g/ha: 125 g ai/ha; for pest or weed control at 500 g/ha: 500 g ai/ha, approx. ten days
Summary of the method: as §2

[7] = tested on: large crabgrass (Digitaria sanguinalis); assay: Test A pre-/postemergence plant response; details: Digitaria sanguinalis, 240 h, read-out: Plant response rating, Crabgrass, Large; for pest or weed control at 125 g/ha: 125 g ai/ha; for pest or weed control at 500 g/ha: 500 g ai/ha, approx. ten days
Summary of the method: as §2

[8] = tested on: barnyardgrass (Echinochloa crus-galli); assay: Test A pre-/postemergence plant response; details: Echinochloa crus-galli, 240 h, read-out: Plant response rating, Barnyardgrass; for pest or weed control at 125 g/ha: 125 g ai/ha; for pest or weed control at 500 g/ha: 500 g ai/ha, approx. ten days
Summary of the method: as §2

[9] = tested on: velvetleaf (Abutilon theophrasti); assay: Test A pre-/postemergence plant response; details: Abutilon theophrasti, 240 h, read-out: Plant response rating, Velvetleaf; for pest or weed control at 125 g/ha: 125 g ai/ha; for pest or weed control at 500 g/ha: 500 g ai/ha, approx. ten days
Summary of the method: as §2

[10] = tested on: giant foxtail (Setaria faberii); assay: Test A pre-/postemergence plant response; details: Setaria faberi, 240 h, read-out: Plant response rating, Foxtail, Giant; for pest or weed control at 125 g/ha: 125 g ai/ha; for pest or weed control at 500 g/ha: 500 g ai/ha, approx. ten days
Summary of the method: as §2

[11] = 62 g ai/ha, postemergence, 0 is no effect, 100 is complete control, 13 to 15 days
[12] = post-emergence, Postemergence, 0 to 100 scale where 0 is no effect and 100 is complete control
[13] = post-emergence, Postemergence, 0 to 100 scale, 0 = no effect, 100 = complete control
[14] = pre-emergence, Preemergence, 0 to 100 scale, 0 = no effect, 100 = complete control
[15] = pre-emergence, Preemergence, visual injury, 0 to 100 scale (0 no effect, 100 complete control)

SMILES: COCCn1c(-c2ccsc2)ncc(C(=O)C2=C(O)CCCC2=O)c1=O [Compound 97, 5-[(2-hydroxy-6-oxo-1-cyclohexen-1-yl)carbonyl]-3-(2-methoxyethyl)-2-(3-thienyl)-4(3H)-pyrimidinone]
- Bermudagrass plant response rating (0 to 100 scale) [1, 11]: 95
- pest or weed control at 31 g/ha ([1]; Cynodon dactylon, post-emergence, 31 g ai/ha, postemergence, scale 0 to 100, 0 is no effect, 100 is complete control, read-out: Plant response rating, Bermudagrass): 95%
- pest or weed control at 125 g/ha ([1]; Cynodon dactylon, post-emergence, Postemergence, 125 g ai/ha, visual rating after 13 to 15 days, scale 0 (no effect) to 100 (complete control)): 95%
- pest or weed control at 250 g/ha ([1]; Cynodon dactylon, post-emergence, Postemergence, 250 g ai/ha, scale 0 to 100 (0 no effect, 100 complete control), read-out: Plant response rating, Bermudagrass): 98%
- Wheat plant response rating (0 to 100 scale) [2, 11]: 0
- plant injury at 31 g/ha ([2]; Triticum aestivum, post-emergence, 31 g ai/ha, postemergence, scale 0 to 100, 0 is no effect, 100 is complete control, read-out: Plant response rating, Wheat): 0%
- plant injury at 250 g/ha ([2]; Triticum aestivum, post-emergence, Postemergence, 250 g ai/ha, scale 0 to 100 (0 no effect, 100 complete control), read-out: Plant response rating, Wheat): 5%
- Cocklebur plant response rating (0 to 100 scale) [3, 11]: 100
- pest or weed control at 31 g/ha ([3]; Xanthium strumarium, post-emergence, 31 g ai/ha, postemergence, scale 0 to 100, 0 is no effect, 100 is complete control, read-out: Plant response rating, Cocklebur): 95%
- pest or weed control at 125 g/ha ([3]; Xanthium strumarium, post-emergence, Postemergence, 125 g ai/ha, visual rating after 13 to 15 days, scale 0 (no effect) to 100 (complete control)): 100%
- pest or weed control at 250 g/ha ([3]; Xanthium strumarium, post-emergence, Postemergence, 250 g ai/ha, scale 0 to 100 (0 no effect, 100 complete control), read-out: Plant response rating, Cocklebur): 100%
- pest or weed control at 125 g/ha [4, 12]: 100%
- pest or weed control at 500 g/ha [4, 13]: 100%
- pest or weed control at 125 g/ha [4, 14]: 70%
- pest or weed control at 500 g/ha [4, 15]: 80%
- plant injury at 125 g/ha [5, 12]: 0%
- plant injury at 500 g/ha [5, 13]: 20%
- plant injury at 125 g/ha [5, 14]: 0%
- plant injury at 500 g/ha [5, 15]: 0%
- Corn plant response rating (crop injury, 0 = no effect, 100 = complete kill) at 125 g/ha (corn (Zea mays); [12]): 50%
- Corn plant response rating (crop injury, 0 = no effect, 100 = complete kill) at 500 g/ha (corn (Zea mays); [13]): 80%
- Corn plant response rating (crop injury, 0 = no effect, 100 = complete kill) at 125 g/ha (corn (Zea mays); [14]): 0%
- Corn plant response rating (crop injury, 0 = no effect, 100 = complete kill) at 500 g/ha (corn (Zea mays); [15]): 0%
- pest or weed control at 125 g/ha [6, 12]: 100%
- pest or weed control at 500 g/ha [6, 13]: 100%
- pest or weed control at 125 g/ha [6, 14]: 100%
- pest or weed control at 500 g/ha [6, 15]: 100%
- pest or weed control at 125 g/ha [7, 12]: 80%
- pest or weed control at 500 g/ha [7, 13]: 100%
- pest or weed control at 125 g/ha [7, 14]: 100%
- pest or weed control at 500 g/ha [7, 15]: 100%
- pest or weed control at 125 g/ha [8, 12]: 90%
- pest or weed control at 500 g/ha [8, 13]: 90%
- pest or weed control at 125 g/ha [8, 14]: 60%
- pest or weed control at 500 g/ha [8, 15]: 100%
- pest or weed control at 125 g/ha [9, 12]: 100%
- pest or weed control at 500 g/ha [9, 13]: 100%
- pest or weed control at 125 g/ha [9, 14]: 100%
- pest or weed control at 500 g/ha [9, 15]: 100%
- pest or weed control at 125 g/ha [10, 12]: 60%
- pest or weed control at 500 g/ha [10, 13]: 80%
- pest or weed control at 125 g/ha [10, 14]: 60%
- pest or weed control at 500 g/ha [10, 15]: 90%

Reference: patent US8952024B2, “Herbicidal pyrimidone derivatives” (E I du Pont de Nemours and Company, priority 2009, dated 2015)
